Laboratory results reported in patent publication US20020091086A1, “Peptides that block viral infectivity and methods of use thereof” (priority 1999, published 2002).
Peptide text beside a SMILES is read from it.

Key:
[1] = test system: GPG-deleted mutant mp8; assay: infectivity in MT-2 cells, p24 ELISA, GPG-deleted mutant mp8; format: cell-based, HIV-1
Protocol: Accordingly, the ability of GPG-NH2 to inhibit the infectivity of wild-type and V3-loop deletion mutants (GPG domain) in MT-2 cells was determined. In these experiments, approximately 200,000 MT-2 cells were infected with HIV-1Bru wild-type and GPG-deleted mutants mp8 and mp10 at 25 TCID50 to test the inhibitory effect of GPG-NH2 The MT-2 cells were resuspended in 1 ml of RPMT 1640 medium supplemented with 10% (v/v) heat-inactivated fetal bovine serum (FBS, GIBCO), penicillin (100μ/ml), streptomycin (100μ/ml) and Polybrene (Sigma 2 μg/ml) with or without the presence of GPG-NH2 at concentration 20 of μM and 100 μM. Thereafter, viruses were added at 25 TCID50 in a volume of 20-30 μl. Cells were incubated with virus at 37° C. for 16 hr then loosely pelleted by centrifugation at 170×g for 7 minutes. The cells were then washed three times in RPMI medium without peptides at room temperature by cell sedimentation at 170×g for 7 minutes as above. After the final wash, the cells were resuspended in RPMI culture medium in 24-well plate (Costar corporation) then kept at 37° C. in 5% CO2 with humidity. Culture supernatants were collected when medium was changed at day 4, 7, 11 and 14 post infection. To monitor the replication of virus, HIV-1 p24 antigen protein in the supernatants from day 7 and 14 was assayed by a ELISA kit (Abbott Laboratories) which has a linear dose-response range from 20 pg to 640 pg of p24 per ml and the p24 amount can be determined with aid of the regression line.

[2] = test system: HIV-1; conditions: Experiment 6; Day 7 HIV-1; 100 μM; HUT78 cells
Protocol: In experiment 6 (Table 7 and FIG. 1), approximately 200,000 HUT78 cells were infected with HIV-1 at 25 TCID50 to test the inhibitory effect of GPG-NH2, RQG-NH2, KQG-NH2, ALG-NH2, GVG-NH2, VGG-NH2, ASG-NH2, SLG-NH2, and SPT-NH2. The HUT cells were resuspended in lml of RPMI 1640 medium supplemented with 10% (v/v) heat-inactivated fetal bovine serum (FBS, GIBCO), penicillin (100 u/ml), streptomycin (100 u/ml) and Polybrene (Sigma, 2 μg/ml) with or without the presence of the different small peptides (100 μM) mentioned above. Thereafter, the HIV-1 virus was added at 25 TCID50 in a volume of 20 μl. Cells were incubated with the virus at 37° C. for one hour and, subsequently, the cells were pelleted at 170×g for seven minutes. The cells were then washed three times in RPMI medium without peptides at room temperature by cell sedimentation at 170×g for seven minutes, as above. After the final wash, the cells were resuspended in RPMI culture medium containing the peptides in 24-well plate (Costar corporation) and were kept at 37° C. in 5% CO2 with humidity. Culture supernatants were collected when medium was changed at day 4, 7, and 11 post infection and viral p24 production was monitored by using an HIV-1 p24 ELISA kit (Abbott Laboratories, North Chicago, USA).

[3] = radioactivity associated with rat plasma proteins, SDS/PAGE; format: in vivo, rats; conditions: 60 minutes after feeding
Protocol: The proteins from whole plasma were also analyzed by column chromatography and fractionated and crude protein were separated by sodium dodecyl sulfate polyacrylamide gel (10%) electrophoresis (SDS/PAGE). Rat plasma samples were partially purified with size exclusion ([…], Phamacia) chromatography (0.4×6 cm), in a buffer of 10 mM Tris-HCl pH 8.3 and 50 mM KCl. Eluate was then separated by anionic exchange chromatography by using an increasing stepwise gradient of NaCl in a buffer of 10 mM Tris-HCl pH8.3 (Sepharose CL-6B DEAE, 0.4×6 cm). The eluate was monitored and pooled according to the radioactivity (Ready Safe, Beckman; LKB 1218, Sweden). The protein fractions with strong signal were separated on a 10% SDS-PAGE and were subsequently blotted onto PVDF (polyvinylidene difluoride, BioRad) membrane before being subjected to Edman N-terminal amino acid sequencing (Applied Biosystems Procise Sequencer, USA).
The proteins marked B1-B4 were sequenced and determined to be alpha-1 antitrypsin (Bi), pentaxin (B-2), C-reactive protein (B-3), and B-4 could not be identified. These proteins are all synthesized in the liver. One interpretation is that hydrolyzed GPG-NH2 was reutilized in the liver protein synthesis. […]

[4] = test system: normal human lymphomonocytic cells (PBMC); assay: viability of cultured monocytes and lymphocytes; format: cell-based; conditions: as high as 2 mM; exposure as long as 4 days
Protocol: (§1) Next, the toxicity to normal human lymphomonocytic cells (PBMC) was examined. […] The effect of GPG-NH2 on in vitro proliferative response of human mononuclear cells was also tested.

[5] = test system: HIV-1 isolate p7300 (low PI); assay: resistant HIV-1 isolates in PBMC, p24 ELISA; format: cell-based; conditions: GPG 100 μM, 14 days post infection
[6] = test system: MT-2; assay: cytotoxicity, trypan-blue dye exclusion and cell counting; conditions: 40 mM, 3 days of culture
Protocol: (§2) The in vitro 50% cytotoxic concentrations (CC50) of various cell lines was also assessed. Accordingly, different concentrations of GPG-NH2, up to 40 mM, was supplemented into the medium culture of T-cell lines HUT78, H9, CEM-SS, MT-2 and (non) induced ACH-2, as well as, the macrophage derived cell lines […], THP-1 and (non) induced U-1 cells. After 3 days of incubation, the number of cells were counted.

[7] = test system: HUT78; assay: as above; conditions: 40 mM, 3 days of culture
Protocol: as §2

[8] = test system: Jurkat-tat III; assay: as above; conditions: 40 mM, 3 days of culture
Protocol: as §2

[9] = test system: human mononuclear cells; assay: in vitro proliferative response of human mononuclear cells; format: cell-based; conditions: 20 μM
Protocol: as §1

[10] = test system: HIV-1 isolate p7163 (inter AZT); assay: resistant HIV-1 isolates in PBMC, p24 ELISA; format: cell-based; conditions: GPG 100 μM, 14 days post infection

## NCC(=O)N1CCC[C@H]1C(=O)NCC(N)=O [GPG-NH2, glycyl-prolyl-glycine amide] (H-Gly-Pro-Gly-NH2)
[1]; GPG 20 μM, Day 7
  p24: 2420 pg/mL
  reduction (%): 24%
[1]; GPG 20 μM, Day 14
  p24: 69100 pg/mL
  reduction (%): 53%
[1]; GPG 100 μM, Day 7
  p24: 208 pg/mL
  reduction (%): 93%
[1]; GPG 100 μM, Day 14
  p24: 7410 pg/mL
  reduction (%): 95%
[2]
  p24: 560 pg/mL
  reduction (%): 97%
[3]
  radioactivity covalently associated with plasma proteins: little radioactivity was observed to be covalently associated with proteins
[4]
  viability of cultured monocytes and lymphocytes: did not appreciably affect the viability
[5]
  % reduction: (100%)
  HIV-1 p24: <500 pg/mL
[6]
  inhibition of cell growth: ~40%
[7]
  inhibition of cell growth: ~40%
[8]
  inhibition of cell growth: ~40%
[9]
  anti-proliferative properties on T cells: marginal if any direct anti-proliferative properties
  function of accessory cells (monocytes and dendritic cells): did not affect the function of accessory cells
[10]
  % reduction: (100%)
  HIV-1 p24: <500 pg/mL
